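48-hour exposure; five concentrations; linearly interpolated endpoints. GI50: concentration for 50% inhibition of growth.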 The source made the active and inactive calls. Rule as the data show it: active = GI50 up to about 1.1 µM and inactive = higher.
Key:
Test in all cases: DTP human tumour cell line panel, 48 h
OVCAR-3 = test system: OVCAR-3
HCT-116 = test system: HCT-116
COLO 205 = test system: COLO 205
Hs-578T = test system: Hs-578T
UACC-257 = test system: UACC-257
KM12 = test system: KM12
SW-620 = test system: SW-620
MCF7 = test system: MCF7
UO-31 = test system: UO-31
A549 = test system: A549
SNB-19 = test system: SNB-19
HOP-92 = test system: HOP-92
NCI-H460 = test system: NCI-H460
M14 = test system: M14
RPMI-8226 = test system: RPMI-8226
DU-145 = test system: DU-145
U-251 = test system: U-251
MDA-N = test system: MDA-N
RXF 393 = test system: RXF 393
NCI-H226 = test system: NCI-H226
786-0 = test system: 786-0
SF-539 = test system: SF-539
CCRF-CEM = test system: CCRF-CEM
MDA-MB-231 = test system: MDA-MB-231
HCT-15 = test system: HCT-15
K562 = test system: K562
UACC-62 = test system: UACC-62
SNB-75 = test system: SNB-75
IGROV-1 = test system: IGROV-1
HT-29 = test system: HT-29
TK-10 = test system: TK-10
MDA-MB-435 = test system: MDA-MB-435
CAKI-1 = test system: CAKI-1
SK-MEL-5 = test system: SK-MEL-5
BT-549 = test system: BT-549
HOP-62 = test system: HOP-62
SK-MEL-28 = test system: SK-MEL-28
LOX IMVI = test system: LOX IMVI
T47D = test system: T47D
SF-295 = test system: SF-295
SK-MEL-2 = test system: SK-MEL-2
NCI-H23 = test system: NCI-H23
OVCAR-8 = test system: OVCAR-8
SR = test system: SR
MOLT-4 = test system: MOLT-4
SN12C = test system: SN12C
SF-268 = test system: SF-268
PC-3 = test system: PC-3
NCI/ADR-RES = test system: NCI/ADR-RES
OVCAR-5 = test system: OVCAR-5
ACHN = test system: ACHN
HL-60 = test system: HL-60
A498 = test system: A498
EKVX = test system: EKVX
SK-OV-3 = test system: SK-OV-3
OVCAR-4 = test system: OVCAR-4
Malme-3M = test system: Malme-3M
NCI-H522 = test system: NCI-H522

In the case of `CC(=O)Nc1ncc(Sc2ccccc2C(=O)O)s1`, the GI50 (OVCAR-3) is reported as > 100 µM (inactive), the GI50 (HCT-116) is reported as > 100 µM (inactive) and the GI50 (COLO 205) is reported as > 100 µM (inactive). For the same molecule, the GI50 (Hs-578T) was > 100 µM (inactive), the GI50 (UACC-257) was > 100 µM (inactive) and the GI50 (KM12) was > 100 µM (inactive). For the same molecule, the GI50 (SW-620) was > 100 µM (inactive), the GI50 (MCF7) was > 100 µM (inactive) and the GI50 (UO-31) was > 100 µM (inactive). The GI50 (A549) was > 100 µM (inactive), the GI50 (SNB-19) was > 100 µM (inactive) and the GI50 (HOP-92) was > 100 µM (inactive). For the same molecule, the GI50 (NCI-H460) was > 100 µM (inactive), the GI50 (M14) was > 100 µM (inactive) and the GI50 (RPMI-8226) was > 100 µM (inactive). For the same molecule, the GI50 (DU-145) was > 100 µM (inactive), the GI50 (U-251) was > 100 µM (inactive) and the GI50 (MDA-N) was > 100 µM (inactive). The GI50 (RXF 393) was > 100 µM (inactive), the GI50 (NCI-H226) was > 100 µM (inactive) and the GI50 (786-0) was > 100 µM (inactive). The GI50 (SF-539) was > 100 µM (inactive), the GI50 (CCRF-CEM) was > 100 µM (inactive) and the GI50 (MDA-MB-231) was > 100 µM (inactive). For the same molecule, the GI50 (HCT-15) was over 100 µM, the GI50 (K562) was > 100 µM (inactive) and the GI50 (UACC-62) was > 100 µM (inactive). For the same molecule, the GI50 (SNB-75) was > 100 µM (inactive), the GI50 (IGROV-1) was > 100 µM (inactive) and the GI50 (HT-29) was > 100 µM (inactive). The GI50 (TK-10) was > 100 µM (inactive), the GI50 (MDA-MB-435) was > 100 µM (inactive) and the GI50 (CAKI-1) was > 100 µM (inactive). For the same molecule, the GI50 (SK-MEL-5) was > 100 µM (inactive), the GI50 (BT-549) was > 100 µM (inactive) and the GI50 (HOP-62) was > 100 µM (inactive). For the same molecule, the GI50 (SK-MEL-28) was > 100 µM (inactive), the GI50 (LOX IMVI) was > 100 µM (inactive) and the GI50 (T47D) was > 100 µM (inactive). The GI50 (SF-295) was > 100 µM (inactive), the GI50 (SK-MEL-2) was > 100 µM (inactive) and the GI50 (NCI-H23) was > 100 µM (inactive). For the same molecule, the GI50 (OVCAR-8) was > 100 µM (inactive), the GI50 (SR) was > 100 µM (inactive) and the GI50 (MOLT-4) was > 100 µM (inactive). The GI50 (SN12C) was > 100 µM (inactive), the GI50 (SF-268) was > 100 µM (inactive) and the GI50 (PC-3) was > 100 µM (inactive). For the same molecule, the GI50 (NCI/ADR-RES) was > 100 µM (inactive), the GI50 (OVCAR-5) was > 100 µM (inactive) and the GI50 (ACHN) was > 100 µM (inactive). The GI50 (HL-60) was > 100 µM (inactive), the GI50 (A498) was > 100 µM (inactive) and the GI50 (EKVX) was > 100 µM (inactive).

For `CCCCCC1CC=CC(=O)O1` (stereo not given), the GI50 (OVCAR-3) was 10.5 µM (inactive), the GI50 (HCT-116) was 2.04 µM (inactive) and the GI50 (COLO 205) was 4.06 µM (inactive). The GI50 (Hs-578T) was 18 µM (inactive), the GI50 (UACC-257) was 14.1 µM (inactive) and the GI50 (KM12) was 4.39 µM (inactive). For the same molecule, the GI50 (SW-620) was 4.1 µM (inactive), the GI50 (MCF7) was 6.52 µM (inactive) and the GI50 (UO-31) was 8.89 µM (inactive). The GI50 (A549) was 6.81 µM (inactive), the GI50 (SNB-19) was 10.5 µM (inactive) and the GI50 (HOP-92) was 1.2 µM (inactive). For the same molecule, the GI50 (NCI-H460) was 11 µM (inactive), the GI50 (M14) was 12 µM (inactive) and the GI50 (RPMI-8226) was 1.91 µM (inactive). The GI50 (DU-145) was 17.4 µM (inactive), the GI50 (U-251) was 3.56 µM (inactive) and the GI50 (MDA-N) was 6.15 µM (inactive). The GI50 (RXF 393) was 4.49 µM (inactive), the GI50 (786-0) was 3.85 µM (inactive) and the GI50 (SF-539) was 1.32 µM (inactive). The GI50 (SK-OV-3) was 7.53 µM (inactive), the GI50 (CCRF-CEM) was 2.39 µM (inactive) and the GI50 (MDA-MB-231) was 10.6 µM (inactive). For the same molecule, the GI50 (HCT-15) was 5.07 µM, the GI50 (K562) was 5.4 µM (inactive) and the GI50 (UACC-62) was 11.5 µM (inactive). The GI50 (OVCAR-4) was 1.18 µM (inactive), the GI50 (IGROV-1) was 2.94 µM (inactive) and the GI50 (HT-29) was 3.89 µM (inactive). For the same molecule, the GI50 (TK-10) was 11.6 µM (inactive), the GI50 (MDA-MB-435) was 5.43 µM (inactive) and the GI50 (Malme-3M) was 0.933 µM (active). The GI50 (CAKI-1) was 3.72 µM (inactive), the GI50 (NCI-H522) was 2.92 µM (inactive) and the GI50 (SK-MEL-5) was 12.4 µM (inactive). The GI50 (BT-549) was 12.3 µM (inactive), the GI50 (HOP-62) was 4.36 µM (inactive) and the GI50 (SK-MEL-28) was 4.51 µM (inactive). For the same molecule, the GI50 (LOX IMVI) was 7.62 µM (inactive), the GI50 (T47D) was 11.4 µM (inactive) and the GI50 (SF-295) was 11.5 µM (inactive). The GI50 (SK-MEL-2) was 6.84 µM (inactive), the GI50 (NCI-H23) was 5.69 µM (inactive) and the GI50 (OVCAR-8) was 5.97 µM (inactive). The GI50 (SR) was 3.39 µM (inactive), the GI50 (MOLT-4) was 2.25 µM (inactive) and the GI50 (SN12C) was 6.73 µM (inactive). For the same molecule, the GI50 (SF-268) was 10.6 µM (inactive), the GI50 (PC-3) was 3.78 µM (inactive) and the GI50 (NCI/ADR-RES) was 5.73 µM (inactive). For the same molecule, the GI50 (OVCAR-5) was 6.84 µM (inactive), the GI50 (ACHN) was 7.62 µM (inactive) and the GI50 (HL-60) was 4.93 µM (inactive). For the same molecule, the GI50 (A498) was 26.1 µM (inactive) and the GI50 (EKVX) was 3.24 µM (inactive).

From ChEMBL document CHEMBL1201862, “PubChem BioAssay data set” (2004)
